Test system: patients with relapsed or refractory diffuse large B-cell lymphoma (R/R DLBCL)
Test: Phase Ib/II study of Pola-R-Len, safety: adverse events graded per NCI CTCAE Version 4.0
Assay type: in vivo, human
Settings: in combination with polatuzumab vedotin 1.8 mg/kg and rituximab 375 mg/m^2; PO Days 1-21 of 28-day cycles
Description: Adverse events were assessed based on the National Cancer Institute Common Terminology Criteria for Adverse Events (NCI CTCAE; Version 4.0). Adverse events that are not specifically listed in the NCI CTCAE were graded as follows: • Grade 1: Mild; asymptomatic or mild symptoms; clinical or diagnostic observations only; or intervention not indicated. • Grade 2: Moderate; minimal, local, or non-invasive intervention indicated; or limiting age-appropriate instrumental activities of daily living. • Grade 3: Severe or medically significant, but not immediately life threatening; hospitalization or prolongation of hospitalization indicated; disabling; or limiting self-care activities of daily living. • Grade 4: Life-threatening consequences or urgent intervention indicated. • Grade 5: Death related to adverse event.
The following populations were defined: • The primary safety and efficacy populations included patients who received at least one dose of any component of the treatment combination. • The intent-to-treat population included patients enrolled in the study.

Nc1cccc2c1CN(C1CCC(=O)NC1=O)C2=O (stereo not shown) [lenalidomide]
recommended Phase II dose (RP2D): 20 mg

Source: patent US20240115718A1, “METHODS OF USING ANTI-CD79B IMMUNOCONJUGATES TO TREAT DIFFUSE LARGE B-CELL LYMPHOMA” (Genentech, Inc., priority 2021, published 2024)
